Laboratory results as given in patent publication US20260217712A1, “SOLID STATE FORMS OF MNK INHIBITORS” (4E Therapeutics, Inc., priority 2023, published 2026).
Read-outs that look alike come from different tables or passages of the source.

Experiments:
Assay type in all cases: physicochemical
[1] = Gravimetric vapor sorption (GVS) and XRPD post-GVS; settings: for GVS reversible water uptake 0-90% RH: 25° C.; for Post GVS XRPD form: after double cycle GVS
Method: Sorption isotherms were obtained using a SMS DVS Intrinsic moisture sorption analyzer, controlled by DVS Intrinsic Control software. The sample temperature was maintained at 25° C. by the instrument controls. The humidity was controlled by mixing streams of dry and wet nitrogen, with a total flow rate of 200 mL/min. The relative humidity was measured by a calibrated Rotronic probe (dynamic range of 1.0-100% RH), located near the sample. The weight change, (mass relaxation) of the sample as a function of % RH was constantly monitored by a microbalance (accuracy±0.005 mg).
(§1) Typically, 5-30 mg of sample was placed in a tared mesh stainless steel basket under ambient conditions. The sample was loaded and unloaded at 40% RH and 25° C. (typical room conditions). A moisture sorption isotherm was performed as outlined below (2 scans per complete cycle). The standard isotherm was performed at 25° C. at 10% RH intervals over a 0-90% RH range. Typically, a double cycle (4 scans) was carried out. Data analysis was carried out within Microsoft Excel using the DVS Analysis Suite.
Sorption isotherms were obtained using a Hiden IGASorp moisture sorption analyser, controlled by Isochema HISorp software. The sample temperature was maintained at 25° C. by a Grant LT ecocool 150 re-circulating water bath. The humidity was controlled by mixing streams of dry and wet nitrogen, with a total flow rate of 250 ml·min-1. The relative humidity was measured by a calibrated Vaisala RH probe (dynamic range of 0-95% RH), located near the sample. The weight change, (mass relaxation) of the sample as a function of % RH was constantly monitored by the microbalance (accuracy±0.001 mg).
as §1, with “Typically, 20-30” for “Typically, 5-30”, “scans giving 1” for “scans per”, “within the Isochema HISorp 2019 software and exported into” for “within”, “Excel to present accordingly.” for “Excel using the DVS Analysis Suite.”

[2] = XRPD under vacuum; settings: for XRPD under vacuum: after 30 min under vacuum
Text: XRPD diffractograms were collected on a PANalytical Empyrean diffractometer using Cu Kα radiation (45 kV, 40 mA, λ=1.544398 Å) in reflection geometry. The instrument was fitted with an Anton Paar CHC plus+ stage fitted with graphite/Kapton windows and equipped with air cooling coupled or a low vacuum pump system using an Edwards RV3 pump. A programmable divergence slit (in automatic mode), with a 10 mm fixed incident beam mask, Ni filter and 0.04 rad Soller slits were used on the incident beam. A PIXcel3D detector, placed on the diffracted beam, was fitted with a programmable anti-scatter slit (in automatic mode) and 0.04 rad Soller slits.
For XRPD under vacuum the samples were prepared and analyzed in an Anton Paar chromed sample holder. The sample temperature was kept constant throughout at 25° C. The measurement parameters are as per the standard screening data collection method (detailed above). An initial measurement was taken before the vacuum was initiated and then subsequently at 10 min intervals. Data collection was stopped after three consecutive scans showing no change.

[3] = Single crystal X-ray diffraction
Method: Crystals of Structure (I) Pattern 3 were obtained by evaporation of a THF:water 9:1 solution. A crystal of Structure (I) Pattern 3 of sufficient size and quality for analysis by single crystal X-ray diffraction was isolated from the sample with approximate dimensions 0.15×0.05×0.02 mm.
The single crystal X-ray structure of Structure (I) Pattern 3 was determined at 293(2) K and a summary of the structural data can be found in Table 41. The crystal structure of Structure (I) Pattern 3 was solved in the triclinic space group P-1 with the final R1 [I>2σ(I)]=4.36%. The structure was identified as depicted in FIG. 89 and FIG. 90 and the asymmetric unit found to contain two molecules of Structure (I).

[4] = Competitive slurries of Pattern 3 and Pattern 11, XRPD
Method: A solid mixture of Structure (I) Pattern 3 (from Lot B, 300 mg) and Pattern 11 (Sample 35-1, 300 mg) was mixed for 3 hours using a turbula mixer.
The solid mixture (30 mg) was suspended in solvent (dried with molecular sieves, 600 μL, 20 vol) and either stirred in the fridge, shaken at RT or 55° C. After 7 days, an aliquot of each suspension was analyzed by XRPD. Samples that were still a mixture of forms were placed back into fridge/shakers for a further 10 days and re-analyzed (results shown in Table 36).
Competitive slurry experiments at 55° C., along with one at 5° C., were repeated using a saturated solution as the solvent mixture to minimize dissolution that may have occurred at temperatures other than room temperature.
A saturated solution of THF/Water (9:1) (5 mL) with Structure (I) (from Lot B) was equilibrated at 55° C. overnight in a shaker. The solution was filtered using 0.45 μm nylon filter before use.
A solid mixture of Pattern 3 and Pattern 11 (30 mg) was suspended in the saturated solution (600 μL, 20 vol) and either stirred in the fridge (5° C.) or shaken at 55° C. After 1 day, aliquots of the suspensions were analyzed by XRPD. Both samples were placed back into fridge/shaker. After a total of 11 days, the samples were removed from fridge/shaker. Sample 38-2 was filtered before XRPD, Sample 38-1 was pipetted onto the XRPD holder and allowed to dry before analysis (solid passed through filter).

- hygroscopicity (in words) [1]: hygroscopic
- GVS reversible water uptake 0-90% RH [1]: 8.4 wt %
- GVS reversible water uptake 0-90% RH ([1]; listed as Lot B Sample 1): 8.4 wt % reversible water uptake
- GVS uptake 80-90% RH ([1]; 80-90% RH): 6.3 wt % uptake 80-90% RH
- Post GVS XRPD form [1]: the solid form was retained
- Post GVS XRPD form ([1]; listed as Lot B Sample 1): Post GVS XRPD: No change in form
- hygroscopicity (in words) ([1]; listed as Lot B): hygroscopic
- hygroscopicity (in words) ([1]; listed as Lot B Sample 1): Material is hygroscopic
- XRPD under vacuum ([2]; listed as Lot B): converted to Pattern 10
- XRPD under vacuum ([2]; listed as Lot B Sample 1): Conversion to Pattern 10 after 30 min
- XRPD after vacuum released ([2]; vacuum released for 30 min, ambient conditions, listed as Lot B Sample 1): Conversion back to Pattern 3 after
- F(000) [3]: 796
- Density (calculated) ([3]; 293(2) K): 1.339 Mg/m^3
- Unit cell dimensions a ([3]; 293(2) K): a = 10.1823(3) Å Å
- Unit cell dimensions b ([3]; 293(2) K): b = 12.1136(4) Å Å
- Unit cell dimensions c ([3]; 293(2) K): c = 16.6675(3) Å Å
- Unit cell dimensions α ([3]; 293(2) K): α = 72.512(2)°
- Unit cell dimensions β ([3]; 293(2) K): β = 79.465(2)°
- Unit cell dimensions γ ([3]; 293(2) K): γ = 72.661(3)°
- Z ([3]; 293(2) K): 4
- Crystal system ([3]; 293(2) K, wavelength 1.54184 Å): Triclinic
- Crystal habit ([3]; crystal from THF:Water 9:1, evaporative): Colorless lath
- Volume ([3]; unit cell, 293(2) K): 1861.87(10) Å^3
- Absorption coefficient ([3]; wavelength 1.54184 Å): 0.756 mm^−1
- form conversion in competitive slurries (in words) [4]: converted to Pattern 11
SMILES: Cc1cc(Nc2cc(N)ncn2)c(=O)n2c1C(=O)NC21CCC2(CC2)CC1 [Pattern 3]
